Data published in patent US9708272B2, “Inhibitors of α-amino-β-carboxymuconic acid semialdehyde decarboxylase” (TES Pharma S.r.l., priority 2014, dated 2017).

Tests used:
[1] = molecular target: hERG potassium channel (Homo sapiens (Human), UniProt Q12809); test: Predictor hERG assay, fluorescence polarization tracer displacement; conditions: hERG channel affinity binding; DMSO 1%
Source text: The Predictor hERG assay kit is stably transfected with hERG potassium channel and a high-affinity red fluorescent hERG channel ligand and is used for the determination of hERG channel affinity binding of compounds of Formula (I), Formula (Ia), Formula (Ib), Formula (II), or Formula (III), or a pharmaceutically acceptable salt thereof. Compounds that bind to the hERG channel protein (competitors) are identified by their ability to displace the tracer which results in a lower fluorescence polarization.
The Predictor hERG assay kit (Invitrogen), containing membrane preparations from Chinese hamster ovary cells stably transfected with hERG potassium channel and a high-affinity red fluorescent hERG channel ligand (tracer), was used for the determination of hERG channel affinity binding of the test compounds in Table 2. Compounds that bind to the hERG channel protein (competitors) were identified by their ability to displace the tracer, resulting in a lower fluorescence polarization. The final concentration of DMSO in each well was maintained at 1%. The assays were performed according to the manufacturer's protocol (Invitrogen).

[2] = system: HePG2 cells; test: Cytotoxicity (LDH release, ATP level) in HePG2 cells; format: cell-based; conditions: 10 nM to 300 μM; 4 hrs; DMSO 1%
Protocol: (§1) HePG2 and AML-12 cells are seeded and a dose-response of the compound is performed at various concentrations. Cells are stimulated and the supernatant is used to perform LDH release as a measure of necrosis while the cells are lysed to detect ATP levels for determining cell viability.
(§2) Cytotoxicity: 20000 HePG2 and AML-12 cells were seeded in 96 well plate (Viewplate PerkinElmer). Dose-response of the compound in Table 2 was performed using HP D300 digital dispenser, ranging from 10 nM to 300 μM with constant DMSO 1% in medium. Cells were stimulated for 4 hrs at 37° C.; the supernatant was used to perform LDH release (Cytotox-one, Promega) as a measure of necrosis while the cells were lysed to detect ATP level for determining cell viability (Celltiter-glo, Promega) according to manufacturer's instructions.

[3] = system: FoxO1; test: FoxO1 phosphorylation levels in AML-12 cells (western blot); format: cell-based, mouse; conditions: 24 hours, FIG. 6
Protocol: AML-12 cells are treated with different concentrations of a compound of Formula (I), Formula (Ia), Formula (Ib), Formula (II), or Formula (III), or a pharmaceutically acceptable salt thereof. Cells are then lysed, and analyzed by SDS-PAGE/western blot. Blocking and antibody incubations are then done and each protein present is detected with its specific antibody.
AML-12 cells were treated with different concentrations of Compound 1 or Compound 17 for 24 hours. Cells were then lysed in lysis buffer (50 mM Tris, 150 mM KCl, EDTA 1 mM, NP40 1%) containing protease and phosphatase inhibitors, and analyzed by SDS-PAGE/western blot. Blocking and antibody incubations were done in 5% milk. Each protein present was detected with its specific antibody. Tubulin antibody was obtained from Sigma Inc, FoxO1 and phopho-FoxO1 (Ser256) antibodies were obtained from Cell Signaling. Antibody detection reactions were developed by enhanced chemiluminescence (Advansta, Calif., USA) using x-ray films.

[4] = system: SOD2; test: Modulation of SOD2 activity in AML-12 cells; format: cell-based, mouse; conditions: 24 hours
Protocol: Primary hepatocytes or AML-12 cells are lysed and total protein concentration is determined using the Bradford assay. SOD2 activity is determined at indicated times after treatment with a compound of Formula (I), Formula (Ia), Formula (Ib), Formula (II), or Formula (III), or a pharmaceutically acceptable salt thereof, using a SOD Assay Kit. Absorbance is determined and results are expressed in U/ml/mg of protein according to the standard curve and measured protein concentration. […]
Primary hepatocytes or AML-12 cells were then lysed in a 20 mM HEPES buffer (Gibco), pH 7.2, containing 1 mM EGTA (Sigma), 210 mM mannitol (Sigma), and 70 mM sucrose (AMRESCO). Total protein concentration was determined using the Bradford assay (BioRad). SOD-2 activity was determined at indicated times after ACMSD inhibitor treatment by the SOD Assay Kit (Cayman Chemical) according to the manufacturer's instructions. […] Absorbance was determined with a Victor X4 multi-label plate reader (Perkin-Elmer) at 450 nm. Results are expressed in U/ml/mg of protein according to the standard curve and measured protein concentration.

[5] = system: SIRT1-regulated genes (Sod2); test: RT-qPCR analysis of SIRT1-regulated genes in Hepa-1.6 cells; format: cell-based; conditions: Hepa-1.6 hepatic cell line; 24 hrs
Protocol: (§3) Cells (AML-12, Hepa-1.6, HEK-293, primary human and murine hepatocytes) are treated with different concentrations of a compound of Formula (I), Formula (Ia), Formula (Ib), Formula (II), or Formula (III), or a pharmaceutically acceptable salt thereof and the gene expression of ACMSD, Pgc1a, Sod1, and Sod2 (MnSOD) is determined using RT-qPCR. Total RNA is extracted from cells and the extracted RNA is treated with DNase and used for reverse transcription (RT).
(§4) Gene expression of ACMSD and genes known to be regulated by SIRT1, (an enzyme that is strictly NAD^+ dependent) such as Pgc1a, Sod1, Sod2 (MnSOD), were analysed in AML-12 cells, Hepa-1.6 cells and primary murine hepatocytes treated with Compound 1 or 17.
(§5) Cells (AML-12, Hepa-1.6, HEK-293, primary human and murine hepatocytes) were treated with different concentrations of Compound 1 or Compound 17. Total RNA was extracted from cells using TRIzol (Invitrogen) according to the manufacturer's instructions. The RNA was treated with DNase, and 2 μg of RNA was used for reverse transcription (RT). 50× diluted cDNA was used for RT-quantitative PCR (RT-qPCR) reactions. The RT-qPCR reactions were performed using the Light-Cycler system (Roche Applied Science) and a qPCR Supermix (QIAGEN) with the indicated primers. The average of at least three technical repeats was used for each biological data point.

[6] = system: AML-12 cells; test: Cytotoxicity (LDH release, ATP level) in AML-12 cells; format: cell-based, mouse; conditions: 10 nM to 300 μM; 4 hrs; DMSO 1%
Protocol: as §1, §2

[7] = system: SIRT1-regulated genes (Sod2); test: RT-qPCR analysis of SIRT1-regulated genes in AML-12 cells; format: cell-based, mouse; conditions: 24 hrs
Protocol: as §3, §4, §5

[8] = system: SOD2; test: Modulation of SOD2 activity in murine primary hepatocytes; format: cell-based, mouse; conditions: primary murine hepatocytes; 24 hours
Protocol: Primary hepatocytes or AML-12 cells are lysed and total protein concentration is determined using the Bradford assay. SOD2 activity is determined at indicated times after treatment with a compound of Formula (I), Formula (Ia), Formula (Ib), Formula (II), or Formula (III), or a pharmaceutically acceptable salt thereof, using a SOD Assay Kit. Absorbance is determined and results are expressed in U/ml/mg of protein according to the standard curve and measured protein concentration.
Primary hepatocytes were prepared from 8-12-week-old C57BL/6J mice by collagenase perfusion method. Mouse livers were perfused with Hank's balanced salt solution (HBSS, KCl, 5.4 mM; KH2PO4, 0.45 mM; NaCl, 138 mM; NaHCO3, 4.2 mM; Na2HPO4, 0.34 mM; glucose, 5.5 mM; […]; EGTA, 50 mM; CaCl2, 50 mM; pH 7.4). Livers were then washed at a rate of 5 ml/min through the portal vein. After washing, livers were perfused with collagenase (0.025%) solution. Cell viability was assessed by the trypan blue method. Isolated primary hepatocytes were plated with DMEM medium (Gibco) including 10% FCS, 10 units per ml penicillin and HEPES for buffering. The cells were maintained in culture at 37° C. in a humidified atmosphere of 5% CO2/95% air. After 6-8 hrs of attachment, this medium was replaced with media containing different concentrations of an ACMSD inhibitor (i.e., Compound 1 or Compound 17) or with the corresponding concentration of DMSO (as a control). Primary hepatocytes were harvested about 24 hrs later if not indicated differently.
Primary hepatocytes or AML-12 cells were then lysed in a 20 mM HEPES buffer (Gibco), pH 7.2, containing 1 mM EGTA (Sigma), 210 mM mannitol (Sigma), and 70 mM sucrose (AMRESCO). Total protein concentration was determined using the Bradford assay (BioRad). SOD-2 activity was determined at indicated times after ACMSD inhibitor treatment by the SOD Assay Kit (Cayman Chemical) according to the manufacturer's instructions. In order to specifically detect the SOD2 activity 2 mM potassium cyanide was added to the assay, which inhibited both Cu/Zn-SOD and extracellular SOD, resulting in the detection of only Mn-SOD (SOD-2) activity. Absorbance was determined with a Victor X4 multi-label plate reader (Perkin-Elmer) at 450 nm. Results are expressed in U/ml/mg of protein according to the standard curve and measured protein concentration.

[9] = molecular target: ACMSD-1 (Homo sapiens (Human), UniProt Q8TDX5); test: ACMSD-1 modulation in HEK293T cells transiently expressing ACMSD; format: cell-based; conditions: about 50 nM to about 5 uM, 48 hrs to 72 hrs
Sequence of ACMSD-1 (Q8TDX5 whole entry): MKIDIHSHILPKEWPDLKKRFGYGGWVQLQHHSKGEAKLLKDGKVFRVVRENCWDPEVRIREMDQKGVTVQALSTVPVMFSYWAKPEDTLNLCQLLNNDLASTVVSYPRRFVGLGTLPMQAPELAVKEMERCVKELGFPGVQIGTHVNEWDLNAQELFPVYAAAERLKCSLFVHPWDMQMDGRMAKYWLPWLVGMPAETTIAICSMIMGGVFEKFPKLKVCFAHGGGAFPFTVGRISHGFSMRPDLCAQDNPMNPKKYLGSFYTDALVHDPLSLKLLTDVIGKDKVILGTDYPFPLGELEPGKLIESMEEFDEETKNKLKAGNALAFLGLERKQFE
Protocol: HEK293T cells are seeded and transfected to transiently express ACMSD. The cells are then stimulated with different concentrations of Compound 1, and then lysed to measure the ACMSD activity in a spectrophotometrical in vitro assay. The amount of the whole protein content in cell lysates is detected by Bradford analysis and used to get the specificity activity of the enzyme normalized in all samples.
HEK293T cells (ATCC) were seeded in six-well plates and transfected using Fugene HD to express transiently ACMSD. 24 hrs post transfection, the cells were stimulated for 48 hrs to 72 hrs with different concentrations of Compound 1 and then lysed to measure the ACMSD activity, by measuring the conversion of 30H-Anthranilic Acid into product (i.e. α-amino-beta-carboxymuconate-ε-semialdehyde, ACMS) in a spectrophotometrical in vitro assay. The amount of the whole protein content in cell lysates was detected by Bradford analysis. This value was used to get the specificity activity of the enzyme normalized in all samples (mU/ml or ΔE/Δt/mg of total protein).
Having determined the optimum stimulation time and transfection protocol cells were stimulated with different concentrations of Compound 1 (about 50 nM to about 5 uM).

[10] = molecular target: hACMSD (ACMSD1) (Homo sapiens (Human), UniProt Q8TDX5); test: Determination of ACMSD1 inhibition, spectrophotometrical in vitro assay; format: biochemical; conditions: 500 μM
Sequence of hACMSD (ACMSD1) (Q8TDX5 whole entry): as above
Protocol: The activity of compounds as inhibitors of ACMSD1 is determined in a spectrophotometrical in vitro assay. The pre-assay mixture is incubated and a compound of Formula (I), Formula (Ia), Formula (Ib), Formula (II), or Formula (III), or a pharmaceutically acceptable salt thereof, and ACMSD1 solution is then added. The effect of ACMS concentration on the enzyme activity is investigated by varying 3-hydroxyanthranilic acid (3OH-HA) concentration in the pre-assay mixture. Kinetic parameters are calculated from the initial velocity data using a Lineweaver-Burk plot.
The activity of compounds 1-19 and 21-23 as inhibitors of ACMSD1 was determined by measuring the conversion of 30H-Anthranilic Acid into product (i.e., ACMS) in a spectrophotometrical in vitro assay.
The pre-assay mixture consisting of 3-hydroxyanthranilic acid (3OH-HA), 3-hydroxyanthranilic acid, 3,4-diOxygenase (HAO), and a dialyzed crude extract of E. coli BL21 (DE3) cells expressing the recombinant enzyme, was incubated at 25° C. with monitoring of the increase in absorbance at 360 nm due to the formation of ACMS from 3OH-HA. After the reaction was completed within ˜2 mins, an aliquot of ACMSD1 solution (prepared and purified from Pichia Pastoris overexpressing the recombinant enzyme) was added, and the decrease in absorbance at 360 nm was followed at 15 second intervals. […]

Sequence of hERG potassium channel (Q12809 whole entry): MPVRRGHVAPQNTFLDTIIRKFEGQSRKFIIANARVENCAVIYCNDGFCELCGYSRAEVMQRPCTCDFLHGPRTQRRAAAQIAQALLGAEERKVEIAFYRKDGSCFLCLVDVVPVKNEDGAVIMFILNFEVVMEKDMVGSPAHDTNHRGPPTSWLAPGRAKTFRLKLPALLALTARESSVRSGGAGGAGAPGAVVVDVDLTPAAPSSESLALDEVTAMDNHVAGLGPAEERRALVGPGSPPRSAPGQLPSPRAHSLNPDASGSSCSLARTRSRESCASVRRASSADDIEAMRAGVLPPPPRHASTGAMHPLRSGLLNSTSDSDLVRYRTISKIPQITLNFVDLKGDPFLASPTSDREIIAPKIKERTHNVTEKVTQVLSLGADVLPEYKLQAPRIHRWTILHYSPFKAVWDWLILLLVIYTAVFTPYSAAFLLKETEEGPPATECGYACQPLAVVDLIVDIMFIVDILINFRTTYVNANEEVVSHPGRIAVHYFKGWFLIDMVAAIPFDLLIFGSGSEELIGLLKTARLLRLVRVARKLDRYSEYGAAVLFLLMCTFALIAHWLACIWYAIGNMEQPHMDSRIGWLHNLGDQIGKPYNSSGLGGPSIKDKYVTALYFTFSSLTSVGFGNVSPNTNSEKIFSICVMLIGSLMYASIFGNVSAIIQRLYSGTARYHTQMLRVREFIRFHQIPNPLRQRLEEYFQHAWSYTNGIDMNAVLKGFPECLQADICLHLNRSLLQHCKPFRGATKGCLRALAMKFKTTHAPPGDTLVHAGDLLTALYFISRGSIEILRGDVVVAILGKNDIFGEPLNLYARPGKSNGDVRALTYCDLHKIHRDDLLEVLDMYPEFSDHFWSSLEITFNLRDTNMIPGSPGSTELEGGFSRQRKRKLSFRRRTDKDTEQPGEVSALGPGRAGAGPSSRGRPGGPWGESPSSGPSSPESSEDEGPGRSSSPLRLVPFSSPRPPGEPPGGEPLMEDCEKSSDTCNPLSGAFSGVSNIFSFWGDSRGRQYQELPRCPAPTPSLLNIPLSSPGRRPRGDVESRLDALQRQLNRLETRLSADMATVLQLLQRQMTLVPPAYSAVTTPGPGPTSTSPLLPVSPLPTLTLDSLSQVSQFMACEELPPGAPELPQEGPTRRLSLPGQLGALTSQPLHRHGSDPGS

SMILES	hERG [1]	Cytotoxicity Hep-G2 [2]	FoxO1 phosphorylation at Ser256 [3]	SOD2 activity [4]	Sod2 mRNA levels [5]	Cytotoxicity AML-12 [6]	Sod2 mRNA levels [7]	SOD2 activity [8]	ACMSD-1 activity in over-expression cell-based assay [9]	inhibition of purified ACMSD-1 enzyme [10]
N#Cc1c(-c2ccccc2)nc(SCc2cccc(C(=O)O)c2)[nH]c1=O [Compound 1]	No Activity	Not Toxic	decrease in FoxO1 phosphorylation at Ser256 with increasing dose	induced in a dose-dependent manner	increased in a dose-dependent manner	Not Toxic	increased in a dose-dependent manner	induced in a dose-dependent manner	inhibited ACMSD-1 activity, in a dose dependent manner	
CCCCC(CC)COC(=O)c1ccccc1C(=O)O (stereo not shown) [MEHP, mono-(2-ethylhexyl)phthalate]										70%
